In patent US20230365559A1, “NOVEL AMINOPYRIDINES AND THEIR USE IN TREATING CANCER” (priority 2020, published 2023):
pIC50: −log10 of the molar value. Several values for one entry are separate records, joined by “and”; a condition that tells them apart may be missing. Equal values may be shown once. Read-outs that look alike come from different tables or passages of the source.

Columns and labels:
[1] = target: T1, Ser1981 of ataxia-telangiectasia mutated (ATM) (Homo sapiens, UniProt Q13315); assay: Inhibition of phosphorylation of Ser1981 of ATM in UT-SCC-54C cells, western immunoblotting; type: cell-based; conditions: oxia, 10 Gy, FIG. 7 (10 μM)
T1 construct: Ser1981 of ataxia-telangiectasia mutated (ATM) in UT-SCC-54C cells

[2] = target: Ser2056 of DNA-PKcs (Homo sapiens, UniProt P78527); assay: Inhibition of cellular autophosphorylation at Ser2056 of DNA-PKcs in UT-SCC-54C cells, western immunoblotting; type: cell-based; conditions: for inhibition of Ser2056 on DNA-PKcs: oxia, FIG. 7 (10 μM)
[3] = system: UT-SCC-54C tumour xenografts; assay: Inhibition of UT-SCC-54C tumour growth, tumour xenograft study; type: in vivo, female NIH-III mice
[4] = system: UT-SCC-54C cells; assay: Radiosensitisation of UT-SCC-54C HNSCC cells, clonogenic survival, oxic and anoxic (Table 18); type: cell-based, human; conditions: for radiosensitisation of UT-SCC-54C cells under oxic conditions: FIG. 9; for Plating efficiency drug/no drug: no radiation; for SER (sensitiser enhancement ratio): anoxic conditions, FIG. 10
[5] = system: UT-SCC-54C cells; assay: Radiosensitisation of UT-SCC-54C HNSCC cells, regrowth (sulforhodamine B) assay, oxic (Table 16); type: cell-based, human; conditions: for S50: compound in combination with 3 Gy of radiation, 50% inhibition of regrowth fraction, UT-SCC-54C; for S50 / radiosensitisation / differential growth inhibition of UT-SCC-54C cells: oxic; for pIC50: Homo sapiens, read-out: IC50; for radiosensitisation / differential growth inhibition of UT-SCC-54C cells: 0 or 3 Gy, regrowth assay
[6] = system: UT-SCC-54C tumour xenografts; assay: Radiosensitisation of UT-SCC-54C HNSCC tumours, ex vivo clonogenic assay of tumour xenografts; type: in vivo, female NIH-III mice; conditions: for reduction in clonogens/gram of tumour, compound with radiation compared to radiation alone: IP 50 mg/kg 15 min before and 6 h after 13 Gy whole-body irradiation; for reduction in clonogens/gram of tumour tissue, compound alone: IP 2 x 50 mg/kg, no radiation, compared to DMSO control
[7] = target: ATR/ATRIP (Homo sapiens, UniProt Q13535); assay: ATR/ATRIP Human PIKK Kinase Enzymatic Radiometric Assay, KinaseProfiler (Eurofins Discovery); type: biochemical; conditions: Km ATP, Table 15, read-out: Inhibition of PIKK kinase activity ATR
Sequence of ATR/ATRIP (Q13535 whole entry): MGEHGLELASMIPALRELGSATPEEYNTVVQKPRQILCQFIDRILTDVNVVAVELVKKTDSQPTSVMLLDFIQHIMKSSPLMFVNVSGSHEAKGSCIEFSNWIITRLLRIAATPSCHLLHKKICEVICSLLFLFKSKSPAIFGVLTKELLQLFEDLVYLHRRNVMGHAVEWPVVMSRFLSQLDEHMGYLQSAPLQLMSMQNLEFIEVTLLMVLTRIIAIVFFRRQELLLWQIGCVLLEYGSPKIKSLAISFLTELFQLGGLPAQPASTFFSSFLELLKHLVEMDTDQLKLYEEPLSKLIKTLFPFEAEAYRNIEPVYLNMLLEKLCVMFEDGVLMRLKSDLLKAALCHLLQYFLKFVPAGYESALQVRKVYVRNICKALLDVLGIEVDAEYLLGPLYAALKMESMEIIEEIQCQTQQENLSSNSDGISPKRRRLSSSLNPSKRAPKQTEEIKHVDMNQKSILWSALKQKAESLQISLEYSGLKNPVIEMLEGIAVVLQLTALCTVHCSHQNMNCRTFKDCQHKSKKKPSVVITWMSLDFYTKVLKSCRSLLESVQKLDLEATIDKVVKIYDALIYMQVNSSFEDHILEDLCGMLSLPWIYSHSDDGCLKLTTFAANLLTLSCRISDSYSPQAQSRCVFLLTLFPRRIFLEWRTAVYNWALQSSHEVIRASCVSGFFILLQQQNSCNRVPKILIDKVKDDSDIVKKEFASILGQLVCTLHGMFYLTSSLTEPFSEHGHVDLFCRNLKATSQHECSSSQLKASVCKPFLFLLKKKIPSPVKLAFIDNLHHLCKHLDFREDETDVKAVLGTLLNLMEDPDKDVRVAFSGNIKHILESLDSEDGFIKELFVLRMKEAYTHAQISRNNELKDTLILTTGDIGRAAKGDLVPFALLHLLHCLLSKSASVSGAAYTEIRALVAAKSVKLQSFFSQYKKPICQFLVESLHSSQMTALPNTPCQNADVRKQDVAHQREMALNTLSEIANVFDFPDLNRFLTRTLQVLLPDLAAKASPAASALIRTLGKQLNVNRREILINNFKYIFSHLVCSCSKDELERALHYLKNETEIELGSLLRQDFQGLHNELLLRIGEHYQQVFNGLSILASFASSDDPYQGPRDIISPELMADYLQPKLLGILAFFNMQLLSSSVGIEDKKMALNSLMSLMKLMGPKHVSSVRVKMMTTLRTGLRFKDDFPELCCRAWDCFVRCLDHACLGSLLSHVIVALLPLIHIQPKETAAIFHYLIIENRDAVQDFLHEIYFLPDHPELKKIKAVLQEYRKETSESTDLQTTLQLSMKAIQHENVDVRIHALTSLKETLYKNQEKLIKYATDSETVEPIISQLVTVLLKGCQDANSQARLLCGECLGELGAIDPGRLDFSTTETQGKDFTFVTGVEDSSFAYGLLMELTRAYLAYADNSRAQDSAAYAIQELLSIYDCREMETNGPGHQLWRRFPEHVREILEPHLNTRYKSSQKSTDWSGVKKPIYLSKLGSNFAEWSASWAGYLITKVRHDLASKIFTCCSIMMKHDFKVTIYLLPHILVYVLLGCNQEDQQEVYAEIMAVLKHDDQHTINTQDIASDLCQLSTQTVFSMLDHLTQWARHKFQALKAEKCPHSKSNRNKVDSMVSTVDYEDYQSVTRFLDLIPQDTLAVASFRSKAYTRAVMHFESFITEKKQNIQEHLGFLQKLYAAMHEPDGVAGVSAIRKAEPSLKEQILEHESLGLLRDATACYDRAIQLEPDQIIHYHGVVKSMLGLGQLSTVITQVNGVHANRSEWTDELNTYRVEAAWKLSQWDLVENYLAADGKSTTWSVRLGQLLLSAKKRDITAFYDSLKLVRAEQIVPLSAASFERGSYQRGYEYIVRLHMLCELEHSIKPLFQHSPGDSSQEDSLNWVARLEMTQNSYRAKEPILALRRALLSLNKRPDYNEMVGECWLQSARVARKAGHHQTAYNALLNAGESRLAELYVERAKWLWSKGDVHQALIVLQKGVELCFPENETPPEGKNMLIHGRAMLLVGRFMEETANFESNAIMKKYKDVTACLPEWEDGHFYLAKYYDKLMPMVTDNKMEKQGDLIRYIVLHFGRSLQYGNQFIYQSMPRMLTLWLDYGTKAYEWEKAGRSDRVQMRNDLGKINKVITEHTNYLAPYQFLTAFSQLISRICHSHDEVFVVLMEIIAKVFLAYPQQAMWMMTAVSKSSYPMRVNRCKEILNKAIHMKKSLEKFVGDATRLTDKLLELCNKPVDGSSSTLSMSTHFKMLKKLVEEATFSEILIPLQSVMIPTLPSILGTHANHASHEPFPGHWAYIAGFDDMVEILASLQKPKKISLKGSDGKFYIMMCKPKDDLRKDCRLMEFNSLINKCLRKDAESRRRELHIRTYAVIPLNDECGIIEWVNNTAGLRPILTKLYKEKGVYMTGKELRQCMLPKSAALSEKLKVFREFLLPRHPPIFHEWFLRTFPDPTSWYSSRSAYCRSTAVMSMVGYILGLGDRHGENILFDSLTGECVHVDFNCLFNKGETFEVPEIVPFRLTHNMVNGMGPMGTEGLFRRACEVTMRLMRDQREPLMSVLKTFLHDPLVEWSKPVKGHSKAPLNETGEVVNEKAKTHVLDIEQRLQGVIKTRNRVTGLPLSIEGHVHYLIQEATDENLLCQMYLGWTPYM
Sequence of ATR/ATRIP (Q8WXE1 whole entry partner): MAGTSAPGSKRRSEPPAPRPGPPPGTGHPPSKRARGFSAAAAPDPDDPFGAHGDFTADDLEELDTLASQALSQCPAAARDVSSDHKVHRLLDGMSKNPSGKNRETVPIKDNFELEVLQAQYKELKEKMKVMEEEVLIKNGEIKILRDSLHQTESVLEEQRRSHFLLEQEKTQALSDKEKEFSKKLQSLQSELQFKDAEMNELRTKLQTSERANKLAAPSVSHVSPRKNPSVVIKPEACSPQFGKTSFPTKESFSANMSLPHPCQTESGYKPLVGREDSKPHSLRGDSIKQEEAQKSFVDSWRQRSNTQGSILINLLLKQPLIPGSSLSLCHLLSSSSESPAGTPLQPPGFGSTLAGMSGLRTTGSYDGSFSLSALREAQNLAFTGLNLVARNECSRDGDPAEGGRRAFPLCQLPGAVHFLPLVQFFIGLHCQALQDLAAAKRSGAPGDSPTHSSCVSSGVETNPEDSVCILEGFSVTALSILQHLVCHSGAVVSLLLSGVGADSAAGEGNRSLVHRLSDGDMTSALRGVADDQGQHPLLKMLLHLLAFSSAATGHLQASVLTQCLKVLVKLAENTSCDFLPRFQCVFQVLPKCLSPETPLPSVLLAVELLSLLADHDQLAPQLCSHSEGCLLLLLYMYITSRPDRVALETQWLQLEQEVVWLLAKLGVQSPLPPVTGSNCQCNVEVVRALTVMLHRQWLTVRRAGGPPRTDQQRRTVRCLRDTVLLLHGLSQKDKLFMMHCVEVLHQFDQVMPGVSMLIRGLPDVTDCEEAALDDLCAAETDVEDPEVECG

[8] = system: HAP1 cells; assay: Radiosensitisation of HAP1 wild type cells, regrowth assay; type: cell-based, human; conditions: for radiosensitisation / differential growth inhibition of HAP1 cells: 3 Gy cobalt-60 gamma irradiation relative to radiation-only; for pIC50: Homo sapiens, HAP1, read-out: HAP1 wt IC50
[9] = target: human PI3Kα (p110α/p85α) (Homo sapiens, UniProt P42336); assay: Inhibition of PI3Kα kinase activity, ADP-Glo Assay (Reaction Biology); type: biochemical; conditions: 10 μM ATP; mean of two replicates; Table 12; read-out: Inhibition of kinase activity (as IC50) PICK
[10] = target: human DNA-PK (Homo sapiens, UniProt P78527); assay: Inhibition of DNA-PKcs kinase activity, HotSpot assay (Reaction Biology), [γ-33P]-ATP phosphorylation of peptide substrate; type: biochemical; conditions: for IC50: 10 μM ATP, 10 μg/ml DNA, mean of two replicates, Table 12, read-out: Inhibition of kinase activity (as IC50) DNA-PK (converted); for pIC50: HotSpot assay Reaction Biology Corp., Table 15, read-out: Inhibition of PIKK kinase activity DNA-PK
[11] = target: human mTOR (Homo sapiens, UniProt P42345); assay: Inhibition of mTOR kinase activity, HotSpot assay, phosphorylation of 4EPB1
[12] = target: ATM (Homo sapiens, UniProt Q13315); assay: ATM Human PIKK Kinase Enzymatic ELISA/EIA Assay, KinaseProfiler (Eurofins Discovery); type: biochemical; conditions: KinaseProfiler, Km ATP; Table 15; read-out: Inhibition of PIKK kinase activity ATM
[13] = system: HAP1/PRKDC−/− cells; assay: Radiosensitisation of DNA-PK null HAP1/PRKDC−/− cells, regrowth assay; type: cell-based, human; conditions: for radiosensitisation / differential growth inhibition of DNA-PK null HAP1 line: 3 Gy, HAP1/PRKDC−/−; for pIC50: Homo sapiens, HAP1
[14] = system: UT-SCC-54C cells; assay: Hypoxia-selective metabolism of prodrugs by UT-SCC-54C cells, LC-MS; conditions: 10 μM, 0-3 h
[15] = UT-SCC-54C, clonogenic survival
[16] = Inhibition of PIKK kinase activity mTOR/FRAP (nM), HotSpot assay Reaction Biology Corp., Table 15
[17] = Inhibition of kinase activity (as IC50) mTOR (nM), 10 μM ATP, mean of two replicates, Table 12

| SMILES | inhibition of phosphorylation of Ser1981 on ATM [1] | D1 (radiation dose for 1% surviving fraction) ([4]; 0% O2, compound conc 1 μM) | D10 (radiation dose for 10% surviving fraction) ([4]; 0% O2, compound conc 1 μM) | D10 (radiation dose for 10% surviving fraction) ([4]; 20% O2, compound conc 1 μM) | radiosensitisation of UT-SCC-54C cells under oxic conditions ([4]; clonogenic survival) | S50 [5] | pIC50 [7] | radiosensitisation / differential growth inhibition of HAP1 cells [8] | pIC50 [9] | IC50 [10] | pIC50 [10] | SER (sensitiser enhancement ratio) [4, 15] | pIC50 [5] | radiosensitisation / differential growth inhibition of UT-SCC-54C cells [5] | IC50 [11, 16] | IC50 [11, 17] | pIC50 [8] | pIC50 [12] | radiosensitisation / differential growth inhibition of DNA-PK null HAP1 line [13] | pIC50 [13] | other results |
| --- | --- | --- | --- | --- | --- | --- | --- | --- | --- | --- | --- | --- | --- | --- | --- | --- | --- | --- | --- | --- | --- |
| CC(C)n1c(=O)n(C)c2cnc3cc(F)c(-c4ccc(OCCCN5CCCCC5)nc4)cc3c21 [AZD1393, reference compound] | inhibited | – | – | – | – | – | – | – | – | – | – | – | – | – | – | – | – | – | – | – | inhibition of Ser2056 on DNA-PKcs ([2]; 10 Gy): did not affect |
| COc1ccc(Nc2cc3c(cn2)n(C)c(=O)n3C2CCOCC2)c(C)c1 [Compound 121, 6-((4-Methoxy-2-methylphenyl)amino)-3-methyl-1-(tetrahydro-2H-pyran-4-yl)-1,3-dihydro-2H-imidazo[4,5-c]pyridin-2-one] | – | 11.7 Gy | 6.18 Gy | 2.65 Gy | provides radiosensitisation | 0.34 µM | < 4.00 | concentration-dependent radiosensitisation | – | – | – | – | – | – | – | – | – | – | – | – | tumour growth inhibition in combination with radiation compared to radiation alone ([3]; PO 2×100 mg/kg, 10 Gy (P=0.007)): significant tumour growth inhibition; tumour growth inhibition in combination with radiation compared to radiation alone ([3]; PO 2×400 mg/kg, 10 Gy (P=0.03)): significant tumour growth inhibition; tumour growth inhibition, compound alone ([3]; PO, compared to DMSO control, FIG. 12A): little additional tumour growth inhibition; D1 (radiation dose for 1% surviving fraction) ([4]; 20% O2, compound conc 0.33 μM): 1.29 Gy; D10 (radiation dose for 10% surviving fraction) ([4]; 20% O2, compound conc 0.33 μM): 4.63 Gy; D1 (radiation dose for 1% surviving fraction) ([4]; 20% O2, compound conc 3 μM): 3.44 Gy; D10 (radiation dose for 10% surviving fraction) ([4]; 20% O2, compound conc 3 μM): 1.73 Gy; radiosensitisation, clonogenic survival endpoint ([4]; UT-SCC-54C, FIG. 8 and Table 18): concentration-dependent increases in radiosensitisation; reduction in clonogens/gram of tumour, compound with radiation compared to radiation alone [6]: significant (p=0.005) additional reduction; reduction in clonogens/gram of tumour tissue, compound alone [6]: no reduction; effect in unirradiated HAP1 cells ([8]; 0 Gy): little effect |
| Cc1cc(OCc2cnc([N+](=O)[O-])n2C)ccc1Nc1cc2c(cn1)n(C)c(=O)n2C1CCCC1 [Compound 234, 1-Cyclopentyl-3-methyl-6-((2-methyl-4-((1-methyl-2-nitro-1H-imidazol-5-yl)methoxy)phenyl)amino)-1,3-dihydro-2H-imidazo[4,5-c]pyridin-2-one] | did not inhibit | – | – | – | does not | 10.9 µM | < 4.00 | did not demonstrate any differential growth inhibition | 6.06 | 766 nM | 6.12 | 1.37 | 4.97 | did not display any differential growth inhibition | 30000 nM | 30000 nM | 5.01 | < 4.00 | did not demonstrate any differential growth inhibition | 5.07 | D1 (radiation dose for 1% surviving fraction) ([4]; 0% O2, compound conc 10 μM): 9.72 Gy; D10 (radiation dose for 10% surviving fraction) ([4]; 0% O2, compound conc 10 μM): 6.78 Gy; SER1 (sensitiser enhancement ratio at 1% surviving fraction) ([4]; 0% O2, compound conc 10 μM): 1.25; SER10 (sensitiser enhancement ratio at 10% surviving fraction) ([4]; 0% O2, compound conc 10 μM): 1.79; Plating efficiency drug/no drug ([4]; 0% O2, compound conc 10 μM): 1.01; D1 (radiation dose for 1% surviving fraction) ([4]; 20% O2, compound conc 10 μM): 7.43 Gy; D10 (radiation dose for 10% surviving fraction) ([4]; 20% O2, compound conc 10 μM): 4.96 Gy; SER1 (sensitiser enhancement ratio at 1% surviving fraction) ([4]; 20% O2, compound conc 10 μM): 1.16; SER10 (sensitiser enhancement ratio at 10% surviving fraction) ([4]; 20% O2, compound conc 10 μM): 1.13; Plating efficiency drug/no drug ([4]; 20% O2, compound conc 10 μM): 1.57; inhibition of radiation-induced Ser2056 autophosphorylation under anoxia ([2]; anoxic, FIG. 6 (20 μM)): able to inhibit phosphorylation; inhibition of Ser2056 on DNA-PKcs ([2]; 10 Gy): did not inhibit; inhibition of Ser2056 autophosphorylation under oxia ([2]; oxic, 10 Gy, FIG. 5 (20 μM)): little inhibition |
| Cc1cc(OCc2cnc([N+](=O)[O-])n2C)ccc1Nc1cc2c(cn1)n(C)c(=O)n2C1CCOCC1 [Compound 236, 3-Methyl-6-((2-methyl-4-((1-methyl-2-nitro-1H-imidazol-5-yl)methoxy)phenyl)amino)-1-(tetrahydro-2H-pyran-4-yl)-1,3-dihydro-2H-imidazo[4,5-c]pyridin-2-one] | – | 17.4 Gy | 9.96 Gy | 6.06 Gy | – | >10 µM | < 4.00 | did not demonstrate any differential growth inhibition | 4.79 and 4.28 | 780 nM and 2200 nM | 6.11 | 1.51 | < 5.00 | did not display any differential growth inhibition | 92900 nM | 92900 nM and > 100000 nM | < 5.00 | 4.24 | did not demonstrate any differential growth inhibition | < 5.00 | SER1 (sensitiser enhancement ratio at 1% surviving fraction) ([4]; 0% O2, compound conc 1 μM): 1.37; SER10 (sensitiser enhancement ratio at 10% surviving fraction) ([4]; 0% O2, compound conc 1 μM): 1.58; Plating efficiency drug/no drug ([4]; 0% O2, compound conc 1 μM): 1.09; D1 (radiation dose for 1% surviving fraction) ([4]; 20% O2, compound conc 1 μM): 9.41 Gy; SER1 (sensitiser enhancement ratio at 1% surviving fraction) ([4]; 20% O2, compound conc 1 μM): 1.00; SER10 (sensitiser enhancement ratio at 10% surviving fraction) ([4]; 20% O2, compound conc 1 μM): 0.94; Plating efficiency drug/no drug ([4]; 20% O2, compound conc 1 μM): 1.05; sensitisation of UT-SCC-54C cells selectively under anoxia ([4]; oxic vs anoxic, clonogenic survival, FIGS. 9 and 10): provide sensitisation of UT-SCC-54C cells selectively under anoxia |
| COc1ccc(N(C(=O)OCc2cnc([N+](=O)[O-])n2C)c2cc3c(cn2)n(C)c(=O)n3C2CCOCC2)c(C)c1 [Compound 248, (1-Methyl-2-nitro-1H-imidazol-5-yl)methyl (4-methoxy-2-methylphenyl)(3-methyl-2-oxo-1-(tetrahydro-2H-pyran-4-yl)-2,3-dihydro-1H-imidazo[4,5-c]pyridin-6-yl)carbamate] | – | 13.8 Gy | 8.57 Gy | 5.61 Gy | does not | >10 µM | < 4.00 | did not demonstrate any differential growth inhibition | 3.97 and < 4.00 | 18.5 nM and 140 nM | 7.73 | 1.82 | < 5.00 | did not display any differential growth inhibition | ≥ 10000 nM | > 100000 nM | < 5.00 | < 4.00 | did not demonstrate any differential growth inhibition | < 5.00 | SER1 (sensitiser enhancement ratio at 1% surviving fraction) ([4]; 0% O2, compound conc 1 μM): 1.71; SER10 (sensitiser enhancement ratio at 10% surviving fraction) ([4]; 0% O2, compound conc 1 μM): 1.73; Plating efficiency drug/no drug ([4]; 0% O2, compound conc 1 μM): 1.13; D1 (radiation dose for 1% surviving fraction) ([4]; 20% O2, compound conc 1 μM): 9.34 Gy; SER1 (sensitiser enhancement ratio at 1% surviving fraction) ([4]; 20% O2, compound conc 1 μM): 1.04; SER10 (sensitiser enhancement ratio at 10% surviving fraction) ([4]; 20% O2, compound conc 1 μM): 1.12; Plating efficiency drug/no drug ([4]; 20% O2, compound conc 1 μM): 1.21; reduction in clonogens/gram of tumour, compound with radiation compared to radiation alone [6]: smaller, but significant (p=0.018) effect; reduction in clonogens/gram of tumour tissue, compound alone [6]: no reduction; pIC50 ([11]; read-out: Inhibition of kinase activity (as IC50) mTOR, 10 μM ATP, mean of two replicates, Table 12): < 4.00; metabolism of prodrug by UT-SCC-54C cells under anoxic conditions (release of 121) ([14]; anoxic): selectively metabolised; metabolism of prodrug by UT-SCC-54C cells under oxic conditions ([14]; oxic): not under oxic conditions |
